How the values were obtained:
[1] = system: A2780 (Ovarian Carcinoma); assay: Bliss excess, mean over the matrix (fraction); higher = more synergy
Procedure, shortened: (§1)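 Cell lines in DMEM/F12 or RPMI with 10% FBS were plated in 1536-well plates, held 24 hours at 37°C, 5% CO2, then given two-drug dose matrices for 72 hours (DMSO typically 0.2%). Viability was read by CellTiter-Glo 2.0 luminescence and scaled as inhibition from 0 (vehicle wells) to 1 (blank wells). Combination Emax is the second-highest inhibition in the matrix; Bliss excess is observed combination effect minus expected EA + EB − EA·EB, EA and EB being single-agent effects.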

[2] = system: MDA-MB-436 (Breast Carcinoma); assay: as above
Procedure, shortened: as §1

PEO1 (Ovarian Carcinoma) = assay: as above
Procedure, shortened: as §1

[3] = system: SK-HEP-1 (Hepatocellular Carcinoma); assay: as above
Procedure, shortened: as §1

769-P (Kidney Carcinoma) = assay: combination Emax (second highest fraction inhibited in the dose matrix, 72 h); higher = more inhibition; extreme values may be limits of the assay
Procedure, shortened: as §1

[4] = system: A2780 (Ovarian Carcinoma); assay: as above
Procedure, shortened: as §1

[5] = system: CGTH-W-1 (Thyroid Gland Carcinoma); assay: as above
Procedure, shortened: as §1

EW-7 (Ewing's Sarcoma) = assay: as above
Procedure, shortened: as §1

[6] = system: HCC1395 (Breast Carcinoma); assay: as above
Procedure, shortened: as §1

HCC70 (Breast Carcinoma) = assay: as above
Procedure, shortened: as §1

[7] = system: JHU-022 (Oral Cavity Carcinoma); assay: as above
Procedure, shortened: as §1

[8] = system: KYSE-220 (Esophageal Squamous Cell Carcinoma); assay: as above
Procedure, shortened: as §1

[9] = system: LU-165 (Small Cell Lung Carcinoma); assay: as above
Procedure, shortened: as §1

[10] = system: MDA-MB-436 (Breast Carcinoma); assay: as above
Procedure, shortened: as §1

[11] = system: MHH-ES-1 (Ewing's Sarcoma); assay: as above
Procedure, shortened: as §1

[12] = system: NCI-H1651 (Lung Adenocarcinoma); assay: as above
Procedure, shortened: as §1

[13] = system: NCI-H1703 (Squamous Cell Lung Carcinoma); assay: as above
Procedure, shortened: as §1

[14] = system: NCI-H441 (Lung Adenocarcinoma); assay: as above
Procedure, shortened: as §1

[15] = system: SK-HEP-1 (Hepatocellular Carcinoma); assay: as above
Procedure, shortened: as §1

[16] = system: SW620 (Colorectal Carcinoma); assay: as above
Procedure, shortened: as §1
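Wherever Bliss excess, mean over the matrix is given: after 72 h of two-drug dosing.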

COc1cc2ncnc(Nc3ccc(F)c(Cl)c3)c2cc1OCCCN1CCOCC1 [Gefitinib] + CC(C)n1c(=O)n(C)c2cnc3cc(F)c(-c4ccc(OCCCN5CCCCC5)nc4)cc3c21 [AZD1390] (first compound max 10 µM, 7x7, partner max 0.3 µM)
Bliss excess [1]: -0.0704
Bliss excess [2]: -0.0402
Bliss excess (PEO1 (Ovarian Carcinoma)): -0.0346
Bliss excess [3]: 0.0092
combination Emax (769-P (Kidney Carcinoma)): 0.442
combination Emax [4]: 0.485
combination Emax [5]: 0
combination Emax (EW-7 (Ewing's Sarcoma)): 0.328
combination Emax [6]: 0.192
combination Emax (HCC70 (Breast Carcinoma)): 0.162
combination Emax [7]: 0.626
combination Emax [8]: 0.431
combination Emax [9]: 0.173
combination Emax [10]: 0.225
combination Emax [11]: 0.182
combination Emax [12]: 0.112
combination Emax [13]: 0.305
combination Emax [14]: 0.271
combination Emax [15]: 0.369
combination Emax [16]: 0.0744

Cc1cc2ncnn2cc1Nc1ncc2c(n1)n(C1CCOCC1)c(=O)n2C [AZD7648] + C[C@@H]1COCCN1C2=NC(=NC(=C2)C3(CC3)[S@](=N)(=O)C)C4=C5C=CNC5=NC=C4 [AZD6738] (first compound max 10 µM, 7x7, partner max 10 µM)
Bliss excess [1]: 0.0061
Bliss excess [2]: 0.0316
Bliss excess (PEO1 (Ovarian Carcinoma)): -0.0121
Bliss excess [3]: 0.0239
combination Emax (769-P (Kidney Carcinoma)): 0.819
combination Emax [4]: 0.806
combination Emax [5]: 0.317
combination Emax (EW-7 (Ewing's Sarcoma)): 0.924
combination Emax [6]: 0.748
combination Emax (HCC70 (Breast Carcinoma)): 0.764
combination Emax [7]: 0.578
combination Emax [8]: 0.91
combination Emax [9]: 0.317
combination Emax [10]: 0.362
combination Emax [11]: 0.565
combination Emax [12]: 0.536
combination Emax [13]: 0.901
combination Emax [14]: 0.478
combination Emax [15]: 0.382
combination Emax [16]: 0.437

CN(CCO)CC[C@H](CSc1ccccc1)Nc1ccc(S(=O)(=O)NC(=O)c2ccc(N3CCC([C@@H](O)c4ccccc4-c4ccc(Cl)cc4)CC3)cc2)cc1S(=O)(=O)C(F)(F)F [AZD4320] + C1CN(CCC1(C(=O)N[C@@H](CCO)C2=CC=C(C=C2)Cl)N)C3=NC=NC4=C3C=CN4 [Capivasertib] (first compound max 1 µM, 7x7, partner max 3 µM)
Bliss excess [1]: -0.0734
Bliss excess [2]: -0.0329
Bliss excess (PEO1 (Ovarian Carcinoma)): -0.0691
Bliss excess [3]: -0.0545
combination Emax (769-P (Kidney Carcinoma)): 0.576
combination Emax [4]: 0.515
combination Emax [5]: 0.19
combination Emax (EW-7 (Ewing's Sarcoma)): 0.861
combination Emax [6]: 0.408
combination Emax (HCC70 (Breast Carcinoma)): 0.813
combination Emax [7]: 0.308
combination Emax [8]: 0.237
combination Emax [9]: 0.581
combination Emax [10]: 0.142
combination Emax [11]: 0.48
combination Emax [12]: 0.193
combination Emax [13]: 0.402
combination Emax [14]: 0.173
combination Emax [15]: 0.245
combination Emax [16]: 0.137

COc1cc2c(cc1OCCCCCOc1cc3c(cc1OC)C(=O)N1C=C(C)C[C@H]1C=N3)N=C[C@@H]1CC(C)=CN1C2=O [SG3199] + O=C(c1cc(Cc2n[nH]c(=O)c3ccccc23)ccc1F)N1CCN(C(=O)C2CC2)CC1 [Olaparib] (first compound max 0.001 µM, 7x7, partner max 10 µM)
Bliss excess [1]: -0.0404
Bliss excess [2]: -0.0412
Bliss excess (PEO1 (Ovarian Carcinoma)): -0.0397
Bliss excess [3]: -0.0582
combination Emax (769-P (Kidney Carcinoma)): 0.174
combination Emax [4]: 0.422
combination Emax [5]: 0.168
combination Emax (EW-7 (Ewing's Sarcoma)): 0.303
combination Emax [6]: 0.181
combination Emax (HCC70 (Breast Carcinoma)): 0.129
combination Emax [7]: 0.0543
combination Emax [8]: 0.119
combination Emax [9]: 0.0933
combination Emax [10]: 0.121
combination Emax [11]: 0.703
combination Emax [12]: 0.274
combination Emax [13]: 0.0514
combination Emax [14]: 0.131
combination Emax [15]: 0.21
combination Emax [16]: 0.144

N#Cc1cnc(Nc2cc(NC[C@H]3CNCCO3)c(C(F)(F)F)cn2)cn1 [SRA737] + O=c1[nH]cc(F)c(=O)[nH]1 [5-Fluorouracil] (first compound max 10 µM, 7x7, partner max 20 µM)
Bliss excess [1]: -0.0066
Bliss excess [2]: 0.0202
Bliss excess (PEO1 (Ovarian Carcinoma)): 0.0228
Bliss excess [3]: -0.122
combination Emax (769-P (Kidney Carcinoma)): 0.756
combination Emax [4]: 0.72
combination Emax [5]: 0.646
combination Emax (EW-7 (Ewing's Sarcoma)): 0.814
combination Emax [6]: 0.653
combination Emax (HCC70 (Breast Carcinoma)): 0.743
combination Emax [7]: 0.513
combination Emax [8]: 0.497
combination Emax [9]: 0.413
combination Emax [10]: 0.409
combination Emax [11]: 0.697
combination Emax [12]: 0.479
combination Emax [13]: 0.885
combination Emax [14]: 0.381
combination Emax [15]: 0.416
combination Emax [16]: 0.422

Cc1nc(Nc2ncc(C(=O)Nc3c(C)cccc3Cl)s2)cc(N2CCN(CCO)CC2)n1 [Dasatinib] + CC(=O)Nc1cccc(-n2c(=O)n(C3CC3)c(=O)c3c(Nc4ccc(I)cc4F)n(C)c(=O)c(C)c32)c1 [Trametinib] (first compound max 2 µM, 7x7, partner max 1 µM)
Bliss excess [1]: 0.029
Bliss excess [2]: -0.044
Bliss excess (PEO1 (Ovarian Carcinoma)): -0.0433
Bliss excess [3]: -0.0294
combination Emax (769-P (Kidney Carcinoma)): 0.814
combination Emax [4]: 0.841
combination Emax [5]: 0.982
combination Emax (EW-7 (Ewing's Sarcoma)): 0.213
combination Emax [6]: 0.527
combination Emax (HCC70 (Breast Carcinoma)): 0.288
combination Emax [7]: 0.681
combination Emax [8]: 0.555
combination Emax [9]: 0.144
combination Emax [10]: 0.342
combination Emax [11]: 0.135
combination Emax [12]: 0.136
combination Emax [13]: 0.782
combination Emax [14]: 0.442
combination Emax [15]: 0.325
combination Emax [16]: 0.694
